Measurements: patent publication US10633389B2, “CARM1 inhibitors and uses thereof” (Epizyme, Inc., priority 2013, dated 2020)

system: asymmetric di-methyl PABP1 in RKO cells; assay: RKO methylation assay, In Cell Western (ICW) for asymmetric di-methyl PABP1; type: cell-based; details: Homo sapiens, RKO, Cellular potencies, ICW PABP1me2a
Outline: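 In-cell Western on fixed RKO cells after 48 h compound exposure: anti-asymmetric di-methyl PABP1 signal at 800 nm over DRAQ5 DNA signal at 700 nm. Percent inhibition set between DMSO wells and wells with 20 μM reference compound; IC50 curves fitted in triplicate.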

Structure (SMILES)	IC50
CNC[C@@H](O)COc1ccc(Cl)c(-c2nc(-c3c(C)noc3C)c(Cl)c(N3Cc4ccncc4C3)n2)c1 [Example 214-3]	< 5 µM
CNC[C@H](O)COc1ccc(Cl)c(-c2nc(N[C@@H]3CCN(C(=O)OC)[C@@H](C)C3)c(C)c(-c3c(C)noc3C)n2)c1 [Example 66-3]	< 5 µM
CNCC(O)COc1cccc(-c2nc(-c3ccnc(C(=O)NC)c3)cc(N(C)C3CCOCC3)n2)c1 (stereo not drawn) [Example 510-1a]	5 to 10 µM
CNCC(O)COc1cccc(-c2nc(N[C@@H]3COC(=O)C3)c(C)c(-c3c(C)noc3C)n2)c1 (stereo partly drawn) [Example 268-1a]	10 to 20 µM
CNCC(O)COc1cccc(-c2nc(NC3CCOC3)c(C)c(N3CCN(C(=O)OC)C(C)(C)C3)n2)c1 (stereo not drawn) [Example 447-1a]	10 to 20 µM
CNCC(O)COc1cccc(-c2nc(NC3CN(CC(F)F)C3)c(C)c(-c3c(C)noc3C)n2)c1 (stereo not drawn) [Example 237-1a]	10 to 20 µM
CNCC(O)COc1cccc(-c2nc(-c3c(C)noc3C)cc(N3CCN(C4CC4)CC3)n2)c1 (stereo not drawn) [Example 30-1a]	< 5 µM
CNCC(O)COc1cccc(-c2nc(N[C@@H]3CCOC3)c(C)c(N3CCC[C@H]4CN(Cc5ccccc5)C[C@H]43)n2)c1 (stereo partly drawn) [Example 378-1a]	10 to 20 µM
CNCC(O)COc1cccc(-c2nc(N[C@@H]3CCOC3)c(C)c(N3CCC4(CCNCC4)CC3)n2)c1 (stereo partly drawn) [Example 429-1a]	10 to 20 µM
CNCC(O)COc1cccc(-c2nc(-c3cn(C)cn3)cc(N(C)C3CCOCC3)n2)c1 (stereo not drawn) [Example 501-1a]	< 5 µM
CNCC(O)COc1cccc(-c2nc(Nc3nncs3)c(C)c(-c3c(C)noc3C)n2)c1 (stereo not drawn) [Example 215-1a]	< 5 µM
CNC[C@@H](O)COc1ccc(Cl)c(-c2nc(N[C@H]3C[C@@H](OC)C3)c(Cl)c(-c3c(C)noc3C)n2)c1 [Example 216-3]	< 5 µM
CNCC(O)COc1cccc(-c2nc(N[C@H]3C[C@@H](C(C)(C)O)C3)c(C)c(-c3c(C)noc3C)n2)c1 (stereo partly drawn) [Example 232-1a]	< 5 µM
CCOC(=O)N1CCOC[C@H]1CNc1nc(-c2cc(OC[C@H](O)CNC)ccc2Cl)nc(-c2c(C)noc2C)c1C [Example 25-3]	< 5 µM
CNCC(O)COc1cccc(-c2nc(N[C@@H]3CCOC3)c(C)c(N3CCN(C(C)=O)[C@@H](C)C3)n2)c1 (stereo partly drawn) [Example 396-1a]	10 to 20 µM
CNC[C@@H](O)COc1ccc(Cl)c(-c2nc(-c3c(C)noc3C)c(C)c(N3Cc4[nH]c(=O)[nH]c(=O)c4C3)n2)c1 [Example 279-3]	10 to 20 µM
CNC[C@H](O)COc1cccc(-c2nc(-c3cnc4cnccn34)cc(N(C)C3CCOCC3)n2)c1 [Example 486-1a]	< 5 µM
CNC[C@H](O)COc1ccc(Cl)c(-c2nc(NC3CCN(C(=O)OC)CC3)c(C)c(-c3c(C)noc3C)n2)c1 [Example 89-3]	< 5 µM
CNCC(O)COc1cccc(-c2nc(-c3c(C)noc3C)cc(N3CCN(C)[C@H](C)C3)n2)c1 (stereo partly drawn) [Example 175-1a]	5 to 10 µM
CNC[C@@H](O)COc1ccc(Cl)c(-c2nc(NC[C@H]3CCCN3C(=O)OC(C)C)c(C)c(-c3c(C)noc3C)n2)c1 [Example 160-3]	< 5 µM
CNCC(O)COc1cccc(-c2nc(-c3c(C)noc3C)cc(N(C)CC3CCOCC3)n2)c1 (stereo not drawn) [Example 87-1a]	< 5 µM
CNCC(O)COc1cccc(-c2nc(-c3c(C)noc3C)c(C)c(N3CCO[C@@H](C)C3)n2)c1 (stereo partly drawn) [Example 209-1a]	5 to 10 µM

Structure (SMILES)	IC50
CNC[C@@H](O)COc1ccc(Cl)c(-c2nc(N[C@@H]3CO[C@@H](C)C3)c(C)c(-c3c(C)noc3C)n2)c1 [Example 162-3]	< 5 µM
CNC[C@@H](O)COc1ccc(Cl)c(-c2nc(N[C@H]3CO[C@@H](C)C3)c(C)c(-c3c(C)noc3C)n2)c1 [Example 152-3]	< 5 µM
CNC[C@@H](O)COc1ccc(Cl)c(-c2nc(OC[C@H]3CCOC3)c(C)c(-c3c(C)noc3C)n2)c1 [Example 117-3]	< 5 µM
CNC[C@@H](O)COc1ccc(Cl)c(-c2nc(NC[C@H]3CCCO3)c(Cl)c(-c3c(C)noc3C)n2)c1 [Example 215-3]	< 5 µM
CNC[C@@H](O)COc1ccc(F)c(-c2nc(NC3CCN(C(=O)OC)CC3)c(C)c(-c3c(C)noc3C)n2)c1 [Example 40-3]	< 5 µM
CCOC(=O)N1CCCC[C@@H]1CNc1nc(-c2cc(OC[C@H](O)CNC)ccc2Cl)nc(-c2c(C)noc2C)c1C [Example 154-3]	< 5 µM
CNCC(O)COc1cccc(-c2nc(-c3cnc4ncccn34)cc(N(C)C3CCOCC3)n2)c1 (stereo not drawn) [Example 489-1a]	< 5 µM
CNC[C@@H](O)COc1ccc(Cl)c(-c2nc(NC3CCN(C(=O)OC)CC3)c(C)c(-c3c(C)noc3C)n2)c1 [Example 104-3]	< 5 µM
CNCC(O)COc1cccc(-c2nc(N[C@@H]3CCOC3)c(C)c(N3Cc4cccnc4C3)n2)c1 (stereo partly drawn) [Example 394-1a]	< 5 µM
CNC[C@H](O)COc1ccc(Cl)c(-c2nc(-c3c(C)noc3C)c(C)c(N(C)[C@H]3C[C@@](C)(OC)C3)n2)c1 [Example 95-3]	< 5 µM
Cc1noc(C)c1-c1nc(-c2cc(OC[C@H](O)CN(C)C)ccc2Cl)nc(N[C@H]2CCN(C3CC3)[C@@H](C)C2)c1C [Example 171-3]	< 5 µM
CNCC(O)COc1cccc(-c2nc(N[C@@H]3CC[C@@H](O)C3)cc(-c3c(C)noc3C)n2)c1 (stereo partly drawn) [Example 44-1a]	5 to 10 µM
CCOC(=O)N1CCC[C@@H]1CCNc1nc(-c2cc(OC[C@H](O)CNC)ccc2Cl)nc(-c2c(C)noc2C)c1C [Example 136-3]	< 5 µM
CNC[C@@H](O)COc1ccc(Cl)c(-c2nc(-c3c(C)noc3C)c(C)c(C3CC3)n2)c1 [Example 205-3]	< 5 µM
CNC[C@@H](O)COc1ccc(Cl)c(-c2nc(-c3c(C)noc3C)c(C)c(N3CC4(CCN(C(=O)OC)CC4)C3)n2)c1 [Example 109-3]	< 5 µM
CNCC(O)COc1cccc(-c2nc(NC3CCN(CC(F)F)CC3)c(C)c(-c3c(C)noc3C)n2)c1 (stereo not drawn) [Example 188-1a]	< 5 µM
CNC[C@@H](O)COc1ccc(Cl)c(-c2nc(-c3c(C)noc3C)c(C)c(N3Cc4cc(F)cnc4C3)n2)c1 [Example 157-3]	< 5 µM
CNCC(O)COc1cccc(-c2nc(N(C)C3CCOCC3)c(C)c(N3CCNC[C@@H]3C)n2)c1 (stereo partly drawn) [Example 567-1a]	10 to 20 µM
CCS(=O)(=O)N1CCOC[C@@H]1CNc1nc(-c2cccc(OCC(O)CNC)c2)nc(-c2c(C)nsc2C)c1C (stereo partly drawn) [Example 71-3]	10 to 20 µM
CCOC(=O)N1CC[C@@H](Nc2nc(-c3cccc(OCC(O)CNC)c3)nc(-c3c(C)noc3C)c2C)[C@@H](F)C1 (stereo partly drawn) [Example 226-1a]	< 5 µM
CNCC(O)COc1cccc(-c2nc(-c3c(C)noc3C)c(C)c(N3CCC[C@H](N(C)C(=O)OC)C3)n2)c1 (stereo partly drawn) [Example 15-3]	5 to 10 µM
CCOC(=O)N1CCOC[C@@H]1CNc1nc(-c2cc(OCC(O)CNC)ccc2Cl)nc(-c2c(C)nsc2C)c1C (stereo partly drawn) [Example 93-3]	< 5 µM

Structure (SMILES)	IC50
CNCC(O)COc1cccc(-c2nc(NC3CC(C(=O)OC)C3)cc(-c3c(C)noc3C)n2)c1 (stereo not drawn) [Example 45-1a]	< 5 µM
CNCC(O)COc1cc(OC)cc(-c2nc(-c3cnc4cnccn34)cc(N(C)C3CCOCC3)n2)c1 (stereo not drawn) [Example 492-1a]	< 5 µM
CNCC(O)COc1cccc(-c2nc(N[C@@H]3CCOC3=O)c(C)c(-c3c(C)noc3C)n2)c1 (stereo partly drawn) [Example 291-1a]	10 to 20 µM
CNC[C@@H](O)COc1ccc(Cl)c(-c2nc(-c3c(C)noc3C)c(C)c(N3CC4(CCN(CC(F)F)CC4)C3)n2)c1 [Example 283-3]	< 5 µM
CNCC(O)COc1cccc(-c2nc(N[C@@H]3CCN(C(=O)OC)C[C@@H]3F)c(C)c(-c3c(C)noc3C)n2)c1 (stereo partly drawn) [Example 225-1a]	< 5 µM
CCOC(=O)N1CCOC[C@@H]1COc1nc(-c2cc(OC[C@H](O)CNC)ccc2Cl)nc(-c2c(C)noc2C)c1C [Example 161-3]	< 5 µM
CNCC(O)COc1cccc(-c2nc(N[C@H]3CC[C@H](O)CC3)cc(-c3c(C)noc3C)n2)c1 (stereo partly drawn) [Example 32-1a]	10 to 20 µM
CNCC(O)COc1cccc(-c2nc(NC3CCC3)c(C)c(-c3c(C)noc3C)n2)c1 (stereo not drawn) [Example 292-1a]	< 5 µM
CNCC(O)COc1cccc(-c2nc(-c3c(C)noc3C)cc(N(C)c3cnc(OC)nc3)n2)c1 (stereo not drawn) [Example 51-1a]	10 to 20 µM
CCOC(=O)N1CCOC[C@@H]1CNc1nc(-c2cc(OC[C@H](O)CNC)ccc2F)nc(-c2c(C)noc2C)c1C [Example 62-3]	< 5 µM
CNCC(O)COc1cccc(-c2nc(N3CCOCC3)c(F)c(N(C)C3CCOCC3)n2)c1 (stereo not drawn) [Example 500-1a]	< 5 µM
CNC[C@@H](O)COc1ccc(Cl)c(-c2nc(-c3c(C)noc3C)c(C)c(N(C)[C@H]3CC[C@@H](OC)C3)n2)c1 [Example 213-3]	< 5 µM
CNCC(O)COc1cccc(-c2nc(NC3CCC[C@H]3O)c(C)c(-c3c(C)noc3C)n2)c1 (stereo partly drawn) [Example 219-1a]	< 5 µM
CNC[C@@H](O)COc1ccc(F)c(-c2nc(-c3c(C)noc3C)c(C)c(N3CC4(CCCCO4)C3)n2)c1 [Example 269-3]	< 5 µM
CCOC(=O)N1CCC(Nc2nc(-c3cc(OC[C@H](O)CNC)ccc3Cl)nc(-c3c(C)noc3C)c2C)CC1 [Example 88-3]	< 5 µM
CNCC(O)COc1cccc(-c2nc(-c3c(C)noc3C)c(C)c(N3C[C@H](C)O[C@@H](C)C3)n2)c1 (stereo partly drawn) [Example 199-1a]	< 5 µM
CNCC(O)COc1cccc(-c2nc(N[C@@H]3CCOC3)c(C)c(N3CC[C@@H](OC)C3)n2)c1 (stereo partly drawn) [Example 369-1a]	10 to 20 µM
CNCC(O)COc1cccc(-c2nc(N3CCNCC3)c(C)c(N(C)C3CCOCC3)n2)c1 (stereo not drawn) [Example 560-1a]	10 to 20 µM
CNC[C@@H](O)COc1ccc(Cl)c(-c2nc(N[C@H]3CCO[C@@H](C)C3)c(Cl)c(-c3c(C)noc3C)n2)c1 [Example 149-3]	< 5 µM
CNCC(O)COc1cccc(-c2nc(-c3cnn(CC(C)C)c3)cc(N(C)C3CCOCC3)n2)c1 (stereo not drawn) [Example 516-1a]	5 to 10 µM
CNCC(O)COc1cccc(-c2nc(-c3ccnc(OC)c3)cc(N(C)C3CCOCC3)n2)c1 (stereo not drawn) [Example 541-1a]	10 to 20 µM
CNCC(O)COc1cccc(-c2nc(NC(C)C3CCOCC3)c(C)c(-c3c(C)noc3C)n2)c1 (stereo not drawn) [Example 157-1a]	< 5 µM
